Assay results taken from patent US20220315567A1 (priority 2016, published 2022).
Several values for one entry are separate records, joined by “and”; a condition that tells them apart may be missing. Equal entries are not always repeated. Structures can show the parent of a compound that is named as a salt. Where two headings read alike, the source gives them in different places.

Key:
human OPRM1 (μ, MOR) [1] = target: T1, human OPRM1 (μ, MOR) (Homo sapiens, UniProt P35372); test: cell-based; settings: for Emax: OPRM1, read-out: cAMP Emax; for EC50: PathHunter human OPRM1 Arrestin CHO-K1 cell line, read-out: cAMP EC50
T1 construct: host or cells: CHO-K1
Protocol: G-protein signaling was measured via second messenger cAMP modulation. Detection of cAMP modulation was accomplished in the PathHunter human OPRM1 (μ, MOR) Arrestin CHO-K1 cell line using the Dynamic2 cAMP Kit from Cisbio.

human OPRM1 (μ, MOR) [2] = target: T1, human OPRM1 (μ, MOR); test: cell-based; settings: for Emax: OPRM1, read-out: β-Arrestin Emax; for EC50: PathHunter human OPRM1 Arrestin CHO-K1 cell line, read-out: β-Arrestin EC50
Protocol: The Discoverx PathHunter® β-Arrestin assay is used to measure β-arrestin-2 activity. The technology is based on Enzyme Fragment Complementation (EFC) with β-galactosidase (β-Gal) as the reporter. […] EA is fused to Q-arrestin-2, and ED is fused to the C-terminus of the GPCR of interest. When a ligand binds and the GPCR is activated, Q-arrestin-2 is recruited to the receptor resulting in an ED/EA complementation, restoring f-Gal activity, which is measured using chemiluminescence. For this assay, the PathHunter human OPRM1 (μ, MOR) Arrestin CHO-K1 cell line was used.

human OPRM1 (μ, MOR) [3] = target: T1, human OPRM1 (μ, MOR); assay type: cell-based; settings: for ΔRA of compound: relative activity from EC50 and Emax of β-arrestin vs cAMP, lower RA = more G-protein biased
Protocol: In certain embodiments, the ability of a compound to activate G-protein or β-arrestin is not an on/off switch for a given pathway, but rather a continuous function. To capture this, each compound is measured for activity in cell assays that are linked to β-arrestin recruitment and G-protein signaling. By comparing the activity between these two measures (accounting for both EC50 and maximal response reached, Emax) a relative activity (RA) value is determined.
In the case of MOR it is desirable to have high activation of the G-protein pathway while reducing activation of β-arrestin. In the case of the formula above, this means a lower RA.

T1 sequence (P35372 whole entry): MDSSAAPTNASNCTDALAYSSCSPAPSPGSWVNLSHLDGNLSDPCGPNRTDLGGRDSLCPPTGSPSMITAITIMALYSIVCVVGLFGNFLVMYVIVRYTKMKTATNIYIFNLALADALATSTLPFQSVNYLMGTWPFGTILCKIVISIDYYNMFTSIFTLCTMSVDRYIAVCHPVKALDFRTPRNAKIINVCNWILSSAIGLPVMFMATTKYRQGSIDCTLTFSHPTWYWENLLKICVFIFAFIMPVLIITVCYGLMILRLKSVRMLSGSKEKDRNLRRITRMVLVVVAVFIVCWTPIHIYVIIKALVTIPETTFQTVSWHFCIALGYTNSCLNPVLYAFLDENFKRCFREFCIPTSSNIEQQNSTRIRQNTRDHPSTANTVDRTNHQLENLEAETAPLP

Question: Which Emax (human OPRM1 (μ, MOR) [1]) does the source give for `Cc1ccc2c(c1)CN(C(=O)NCC(c1ccsc1)N(C)C)C2` (centres unmarked) [Compound 12a, N-(2-(Dimethylamino)-2-(thiophen-3-yl)ethyl)-5-methylisoindoline-2-carboxamide hydrochloride] here?
Answer: 6.33%

Question: And the EC50 (human OPRM1 (μ, MOR) [1])?
Answer: > 100000 nM

Question: What about the Emax (human OPRM1 (μ, MOR) [2]) of the same compound?
Answer: 2.16%

Question: And the EC50 (human OPRM1 (μ, MOR) [2])?
Answer: > 100000 nM

Question: With `COc1ccc(C(CNC(=O)N2Cc3ccc(F)cc3C2)N(C)C)cc1` (centres unmarked) [Compound 16a, N-(2-(Dimethylamino)-2-(4-methoxyphenyl)ethyl)-5-fluoroisoindoline-2-carboxamide hydrochloride] as the compound, how does the Emax (human OPRM1 (μ, MOR) [1]) read?
Answer: 91.9%

Question: What about the EC50 (human OPRM1 (μ, MOR) [1]) of the same compound?
Answer: 26 nM

Question: And the “Bias Factor (ΔRA of compound relative to ΔRA of DAMGO) × 10” value (human OPRM1 (μ, MOR) [3])?
Answer: −9.60

Question: What about the ΔRA of compound (human OPRM1 (μ, MOR) [3]) of the same compound?
Answer: −2.44

Question: What about the Emax (human OPRM1 (μ, MOR) [2]) of the same compound?
Answer: 12.2%

Question: What about the EC50 (human OPRM1 (μ, MOR) [2]) of the same compound?
Answer: 950 nM

Question: For `CN(C)[C@H](CCNC(=O)N1CC[C@H](c2ccccc2)C1)c1ccsc1` [Compound 75], which Emax (human OPRM1 (μ, MOR) [1]) is on record?
Answer: 114%

Question: What about the EC50 (human OPRM1 (μ, MOR) [1]) of the same compound?
Answer: 2090 nM

Question: What about the “Bias Factor (ΔRA of compound relative to ΔRA of DAMGO) × 10” value (human OPRM1 (μ, MOR) [3]) of the same compound?
Answer: −3.97

Question: What about the ΔRA of compound (human OPRM1 (μ, MOR) [3]) of the same compound?
Answer: −1.88

Question: And the Emax (human OPRM1 (μ, MOR) [2])?
Answer: 12.2%

Question: What about the EC50 (human OPRM1 (μ, MOR) [2]) of the same compound?
Answer: 17000 nM

Question: Which results are given for `CN(C)C(CNC(=O)N1Cc2ccc(F)cc2C1)c1ccsc1` (single isomer, unassigned; (-)) [2a-ent-(−), (−)-N-(2-(Dimethylamino)-2-(thiophen-3-yl)ethyl)-5-fluoroisoindoline-2-carboxamide hydrochloride]?
Answer: EC50 (human OPRM1 (μ, MOR) [1]): 12 nM and 15 nM; cAMP Emax (human OPRM1 (μ, MOR) [1]; hydrochloride): 55.5, 30.4%; Bias Factor (ΔRA of compound relative to ΔRA of DAMGO) × 10 (human OPRM1 (μ, MOR) [3]; hydrochloride): <−14.83; ΔRA of compound (human OPRM1 (μ, MOR) [3]; hydrochloride): <−2.96; EC50 (human OPRM1 (μ, MOR) [2]): > 100000 nM; β-Arrestin Emax (human OPRM1 (μ, MOR) [2]; hydrochloride): <1%

Question: For `CN(C)[C@H](CCNC(=O)N1CC[C@@H](c2ccccc2)C1)c1ccsc1` [Compound 76], which Emax (human OPRM1 (μ, MOR) [1]) is on record?
Answer: 33%

Question: And the EC50 (human OPRM1 (μ, MOR) [1])?
Answer: 1760 nM

Question: And the “Bias Factor (ΔRA of compound relative to ΔRA of DAMGO) × 10” value (human OPRM1 (μ, MOR) [3])?
Answer: <−14.83

Question: What about the ΔRA of compound (human OPRM1 (μ, MOR) [3]) of the same compound?
Answer: <−2.96

Question: And the Emax (human OPRM1 (μ, MOR) [2])?
Answer: < 1%

Question: What about the EC50 (human OPRM1 (μ, MOR) [2]) of the same compound?
Answer: > 100000 nM

Question: `CN(C)C(CNC(=O)N1Cc2cc(F)c(F)cc2C1)c1ccsc1` (centres unmarked) [Compound 6a, N-(2-(dimethylamino)-2-(thiophen-3-yl)ethyl)-5,6-difluoroisoindoline-2-carboxamide hydrochloride] was tested. Which Emax (human OPRM1 (μ, MOR) [1]) did it give?
Answer: 21.9%

Question: What about the EC50 (human OPRM1 (μ, MOR) [1]) of the same compound?
Answer: 9 nM

Question: What about the “Bias Factor (ΔRA of compound relative to ΔRA of DAMGO) × 10” value (human OPRM1 (μ, MOR) [3]) of the same compound?
Answer: <−14.83

Question: And the ΔRA of compound (human OPRM1 (μ, MOR) [3])?
Answer: <−2.96

Question: And the Emax (human OPRM1 (μ, MOR) [2])?
Answer: < 1%

Question: And the EC50 (human OPRM1 (μ, MOR) [2])?
Answer: > 100000 nM

Question: Which results are given for `CN(C)C(CNC(=O)N1Cc2ccccc2C1)c1ccccc1` (centres unmarked) [Compound 18a, N-(2-(Dimethylamino)-2-phenylethyl)isoindoline-2-carboxamide hydrochloride]?
Answer: Emax (human OPRM1 (μ, MOR) [1]): 100%; EC50 (human OPRM1 (μ, MOR) [1]): 23 nM; Bias Factor (ΔRA of compound relative to ΔRA of DAMGO) × 10 (human OPRM1 (μ, MOR) [3]; hydrochloride): −11.84; ΔRA of compound (human OPRM1 (μ, MOR) [3]; hydrochloride): −2.66; Emax (human OPRM1 (μ, MOR) [2]): 6.91%; EC50 (human OPRM1 (μ, MOR) [2]): 730 nM

Question: `CN(C)C(CNC(=O)N1Cc2ccc(Cl)cc2C1)c1ccsc1` (centres unmarked) [Compound 4a, 5-Chloro-N-(2-(dimethylamino)-2-(thiophen-3-yl)ethyl)isoindoline-2-carboxamide hydrochloride] was tested. Which Emax (human OPRM1 (μ, MOR) [1]) did it give?
Answer: 20.7%

Question: And the EC50 (human OPRM1 (μ, MOR) [1])?
Answer: > 100000 nM

Question: What about the Emax (human OPRM1 (μ, MOR) [2]) of the same compound?
Answer: < 1%

Question: What about the EC50 (human OPRM1 (μ, MOR) [2]) of the same compound?
Answer: > 100000 nM

Question: For `CNC(CNC(=O)N1Cc2ccccc2C1)c1ccccc1` (centres unmarked) [Compound 38, N-(2-(methylamino)-2-phenylethyl)isoindoline-2-carboxamide], which Emax (human OPRM1 (μ, MOR) [1]) is on record?
Answer: 95.9%

Question: And the EC50 (human OPRM1 (μ, MOR) [1])?
Answer: 45 nM

Question: What about the “Bias Factor (ΔRA of compound relative to ΔRA of DAMGO) × 10” value (human OPRM1 (μ, MOR) [3]) of the same compound?
Answer: −12.56

Question: What about the ΔRA of compound (human OPRM1 (μ, MOR) [3]) of the same compound?
Answer: −2.74

Question: And the Emax (human OPRM1 (μ, MOR) [2])?
Answer: 6.6%

Question: And the EC50 (human OPRM1 (μ, MOR) [2])?
Answer: 1670 nM

Question: Which results are given for `CNC(CNC(=O)N1Cc2cccc(F)c2C1)c1ccsc1` (centres unmarked) [Compound 81]?
Answer: cAMP Emax (human OPRM1 (μ, MOR) [1]): 91.6%; EC50 (human OPRM1 (μ, MOR) [1]): 14 nM; Bias Factor (ΔRA of compound relative to ΔRA of DAMGO) × 10 (human OPRM1 (μ, MOR) [3]): <−14.83; ΔRA of compound (human OPRM1 (μ, MOR) [3]): <−2.96; β-Arrestin Emax (human OPRM1 (μ, MOR) [2]): 8.2%; EC50 (human OPRM1 (μ, MOR) [2]): > 100000 nM

Question: Which “cAMP Emax” value (human OPRM1 (μ, MOR) [1]) does the source give for `CNC(CNC(=O)N1Cc2ccccc2C1)c1ccsc1` (centres unmarked) [Compound 78] here?
Answer: 104.0%

Question: And the EC50 (human OPRM1 (μ, MOR) [1])?
Answer: 362 nM

Question: What about the “Bias Factor (ΔRA of compound relative to ΔRA of DAMGO) × 10” value (human OPRM1 (μ, MOR) [3]) of the same compound?
Answer: <−14.83

Question: And the ΔRA of compound (human OPRM1 (μ, MOR) [3])?
Answer: <−2.96

Question: And the “β-Arrestin Emax” value (human OPRM1 (μ, MOR) [2])?
Answer: 12.8%

Question: What about the EC50 (human OPRM1 (μ, MOR) [2]) of the same compound?
Answer: > 100000 nM

Question: What does the source list for `CNC(CNC(=O)N1Cc2ccccc2C1)c1ccsc1` (centres unmarked) [Compound 79]?
Answer: cAMP Emax (human OPRM1 (μ, MOR) [1]): 64.2%; EC50 (human OPRM1 (μ, MOR) [1]): 87 nM; Bias Factor (ΔRA of compound relative to ΔRA of DAMGO) × 10 (human OPRM1 (μ, MOR) [3]): <−14.83; ΔRA of compound (human OPRM1 (μ, MOR) [3]): <−2.96; β-Arrestin Emax (human OPRM1 (μ, MOR) [2]): 1.7%; EC50 (human OPRM1 (μ, MOR) [2]): > 100000 nM

Question: `CN(C)C(CNC(=O)N[C@H]1CCc2ccc(O)cc2C1)c1ccsc1` (some centres unmarked) [Compound 60] was tested. Which Emax (human OPRM1 (μ, MOR) [1]) did it give?
Answer: 27.5%

Question: And the EC50 (human OPRM1 (μ, MOR) [1])?
Answer: 676 nM

Question: And the “Bias Factor (ΔRA of compound relative to ΔRA of DAMGO) × 10” value (human OPRM1 (μ, MOR) [3])?
Answer: <−14.83

Question: What about the ΔRA of compound (human OPRM1 (μ, MOR) [3]) of the same compound?
Answer: <−2.96

Question: And the Emax (human OPRM1 (μ, MOR) [2])?
Answer: < 1%

Question: What about the EC50 (human OPRM1 (μ, MOR) [2]) of the same compound?
Answer: > 100000 nM
